Results reported in patent US11147272B2, “Pyridone compounds and agricultural and horticultural fungicides comprising the same as active ingredients” (MITSUI CHEMICALS AGRO, INC., priority 2017, dated 2021).

Key:
[1] = tested on: Botrytis cinerea; test: Test Example B: Gray mold on tomato; settings: Gray mold on tomato; control value class
[2] = tested on: Plasmopara viticola; test: Test Example G: Downy mildew on vine; settings: Downy mildew on vine; 250 ppm spray, 7 to 10 days after inoculation
[3] = tested on: Phytophthora infestans; test: whole plant or invertebrate; assay type: in vivo; settings: Late blight on tomato; control value class
[4] = tested on: Magnaporthe grisea; test: whole plant or invertebrate; assay type: in vivo; settings: Blast on rice; control value class
[5] = tested on: Blumeria graminis f. sp. hordei; test: Test Example D: Powdery mildew on barley; settings: Powdery mildew on barley; control value class
[6] = tested on: Puccinia recondita; test: Test Example E: Brown rust on wheat; assay type: in vivo; settings: Brown rust on wheat; control value class
[7] = tested on: Alternaia brassicicola; test: Test Example C: Alternaria sooty spot on cabbage; assay type: in vivo; settings: Alternaria sooty spot on cabbage; control value class
Excerpt: Seeds of a test plant (cabbage variety: Shikidori) were planted and cultivated until the cotyledons extended.
<Control Value> Control value=100{1−(n/3)}

[8] = tested on: Colletotrichum orbiculare; test: Test Example H: Anthracnose on cucumber; settings: Anthracnose on cucumber; 250 ppm spray, 6 to 10 days after inoculation

CC=Cc1cc(Cl)c(=O)n(CC)c1-c1ccc(F)cc1Cl [compound 299] was tested, and the “Test B control value” [1] was “H (more than 50% control value)”, the “Test G control value” [2] was “H (more than 50% control value)” and the “Test F control value” [3] was “L (50% or less control value)”. For the same compound, the “Test A control value” [4] was “L (50% or less control value)”, the “Test D control value” [5] was “H (more than 50% control value)” and the “Test E control value” [6] was “H (more than 50% control value)”. For the same compound, the “Test C control value” [7] was “H (more than 50% control value)” and the “Test H control value” [8] was “H (more than 50% control value)”.

With CCn1c(-c2ccc(F)cc2Cl)c(C=C(Br)Br)cc(Cl)c1=O [compound 301] the “Test B control value” [1] was “H (more than 50% control value)”, the “Test G control value” [2] was “L (50% or less control value)” and the “Test F control value” [3] was “L (50% or less control value)”. For the same compound, the “Test A control value” [4] was “H (more than 50% control value)”, the “Test D control value” [5] was “H (more than 50% control value)” and the “Test E control value” [6] was “H (more than 50% control value)”. For the same compound, the “Test C control value” [7] was “H (more than 50% control value)” and the “Test H control value” [8] was “H (more than 50% control value)”.

C#Cc1cc(Cl)c(=O)n(CC)c1-c1ccc(F)cc1Cl [compound 302] was tested, and the “Test B control value” [1] was “H (more than 50% control value)”, the “Test G control value” [2] was “L (50% or less control value)” and the “Test F control value” [3] was “L (50% or less control value)”. The “Test A control value” [4] was “H (more than 50% control value)”, the “Test D control value” [5] was “L (50% or less control value)” and the “Test E control value” [6] was “H (more than 50% control value)”. The “Test C control value” [7] was “L (50% or less control value)” and the “Test H control value” [8] was “H (more than 50% control value)”.

In the case of C#Cc1cc(Cl)c(=O)n(CC)c1-c1c(F)cc(F)cc1F [compound 303], the “Test B control value” [1] is reported as “H (more than 50% control value)”, the “Test G control value” [2] is reported as “L (50% or less control value)” and the “Test F control value” [3] is reported as “L (50% or less control value)”. The “Test A control value” [4] was “L (50% or less control value)”, the “Test D control value” [5] was “H (more than 50% control value)” and the “Test E control value” [6] was “H (more than 50% control value)”. The “Test C control value” [7] was “H (more than 50% control value)” and the “Test H control value” [8] was “H (more than 50% control value)”.

For CC(C)Cc1cc(Cl)c(=O)n(CC(F)F)c1-c1c(F)cc(F)cc1F [compound 304], the “Test B control value” [1] was “H (more than 50% control value)”, the “Test G control value” [2] was “L (50% or less control value)” and the “Test F control value” [3] was “L (50% or less control value)”. For the same compound, the “Test A control value” [4] was “H (more than 50% control value)”, the “Test D control value” [5] was “H (more than 50% control value)” and the “Test E control value” [6] was “H (more than 50% control value)”. For the same compound, the “Test C control value” [7] was “H (more than 50% control value)” and the “Test H control value” [8] was “H (more than 50% control value)”.

For CC(C)Cc1cc(Br)c(=O)n(CC(F)F)c1-c1c(F)cc(F)cc1F [compound 305], the “Test B control value” [1] was “H (more than 50% control value)”, the “Test G control value” [2] was “L (50% or less control value)” and the “Test F control value” [3] was “L (50% or less control value)”. The “Test A control value” [4] was “H (more than 50% control value)”, the “Test D control value” [5] was “H (more than 50% control value)” and the “Test E control value” [6] was “H (more than 50% control value)”. The “Test C control value” [7] was “H (more than 50% control value)” and the “Test H control value” [8] was “H (more than 50% control value)”.

With CCn1c(-c2c(F)cc(F)cc2F)c(CC(C)C)cc(C)c1=O [compound 306] the “Test B control value” [1] was “H (more than 50% control value)”, the “Test G control value” [2] was “H (more than 50% control value)” and the “Test F control value” [3] was “L (50% or less control value)”. The “Test A control value” [4] was “H (more than 50% control value)”, the “Test D control value” [5] was “H (more than 50% control value)” and the “Test E control value” [6] was “H (more than 50% control value)”. For the same compound, the “Test C control value” [7] was “H (more than 50% control value)” and the “Test H control value” [8] was “H (more than 50% control value)”.

Cc1cc(CC(C)C)c(-c2c(F)cc(F)cc2F)n(CC(F)F)c1=O [compound 307] was tested, and the “Test B control value” [1] was “H (more than 50% control value)”, the “Test G control value” [2] was “L (50% or less control value)” and the “Test F control value” [3] was “L (50% or less control value)”. For the same compound, the “Test A control value” [4] was “L (50% or less control value)”, the “Test D control value” [5] was “H (more than 50% control value)” and the “Test E control value” [6] was “H (more than 50% control value)”. For the same compound, the “Test C control value” [7] was “H (more than 50% control value)” and the “Test H control value” [8] was “H (more than 50% control value)”.

For CCn1c(-c2c(F)cc(F)cc2F)c(COc2ccccc2)cc(Cl)c1=O [compound 308], the “Test B control value” [1] was “L (50% or less control value)”, the “Test G control value” [2] was “L (50% or less control value)” and the “Test F control value” [3] was “L (50% or less control value)”. The “Test A control value” [4] was “H (more than 50% control value)”, the “Test D control value” [5] was “L (50% or less control value)” and the “Test E control value” [6] was “L (50% or less control value)”. For the same compound, the “Test C control value” [7] was “H (more than 50% control value)” and the “Test H control value” [8] was “L (50% or less control value)”.

With CCn1c(-c2c(F)cc(F)cc2F)c(C(Cl)=CCl)cc(Cl)c1=O [compound 309] the “Test B control value” [1] was “H (more than 50% control value)”, the “Test G control value” [2] was “H (more than 50% control value)” and the “Test F control value” [3] was “L (50% or less control value)”. The “Test A control value” [4] was “H (more than 50% control value)”, the “Test D control value” [5] was “H (more than 50% control value)” and the “Test E control value” [6] was “H (more than 50% control value)”. The “Test C control value” [7] was “H (more than 50% control value)” and the “Test H control value” [8] was “H (more than 50% control value)”.

In the case of CCn1c(-c2c(F)cc(F)cc2F)c(COc2ccc(OC)cc2)cc(Cl)c1=O [compound 310], the “Test B control value” [1] is reported as “H (more than 50% control value)”, the “Test G control value” [2] is reported as “H (more than 50% control value)” and the “Test F control value” [3] is reported as “L (50% or less control value)”. For the same compound, the “Test A control value” [4] was “L (50% or less control value)”, the “Test D control value” [5] was “L (50% or less control value)” and the “Test E control value” [6] was “H (more than 50% control value)”. The “Test C control value” [7] was “H (more than 50% control value)” and the “Test H control value” [8] was “L (50% or less control value)”.

For CCn1c(-c2c(F)cc(F)cc2F)c(COc2ccc(Cl)cc2)cc(Cl)c1=O [compound 311], the “Test B control value” [1] was “L (50% or less control value)”, the “Test G control value” [2] was “L (50% or less control value)” and the “Test F control value” [3] was “L (50% or less control value)”. For the same compound, the “Test A control value” [4] was “L (50% or less control value)”, the “Test D control value” [5] was “L (50% or less control value)” and the “Test E control value” [6] was “H (more than 50% control value)”. The “Test C control value” [7] was “L (50% or less control value)” and the “Test H control value” [8] was “L (50% or less control value)”.

With CCC1=C(c2ccc(F)cc2Cl)N(C)C(=O)CC1 [compound 312] the “Test B control value” [1] was “L (50% or less control value)”, the “Test G control value” [2] was “L (50% or less control value)” and the “Test F control value” [3] was “L (50% or less control value)”. The “Test A control value” [4] was “L (50% or less control value)”, the “Test D control value” [5] was “L (50% or less control value)” and the “Test E control value” [6] was “L (50% or less control value)”. The “Test C control value” [7] was “H (more than 50% control value)” and the “Test H control value” [8] was “L (50% or less control value)”.
